pIC50: −log10 of the molar value.

The target of the assay is T1, human ENT1 (Homo sapiens, UniProt Q99808).
T1 sequence (Q99808 1-456): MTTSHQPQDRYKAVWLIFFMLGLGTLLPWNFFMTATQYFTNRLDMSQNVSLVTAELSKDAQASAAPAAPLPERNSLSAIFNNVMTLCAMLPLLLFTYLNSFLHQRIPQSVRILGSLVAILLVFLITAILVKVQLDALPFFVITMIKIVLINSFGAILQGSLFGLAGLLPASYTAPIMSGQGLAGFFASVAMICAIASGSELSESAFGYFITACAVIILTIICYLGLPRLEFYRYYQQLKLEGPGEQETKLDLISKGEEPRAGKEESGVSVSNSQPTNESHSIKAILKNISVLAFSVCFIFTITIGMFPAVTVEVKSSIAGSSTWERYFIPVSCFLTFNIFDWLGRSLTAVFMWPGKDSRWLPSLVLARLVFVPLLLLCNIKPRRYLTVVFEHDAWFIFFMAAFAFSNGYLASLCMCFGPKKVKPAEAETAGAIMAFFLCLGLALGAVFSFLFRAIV
The experiment in a line: ENT1 binding assay (competition with Sahenta-DY647 on JAR cells). Further details: JAR cells expressing ENT1 were bought from ATCC; host or cells: JAR cells. The settings on record: binned IC50. In outline:
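JAR cells were incubated with test compounds and the fluorescent ligand Sahenta-DY647 in competition. Plates were washed twice by centrifugation (4 min, 400 rcf, 4 °C). Binding potency was derived from the final fluorescence.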
`COCCN(CCOC)c1nc(N2CCC(OC)CC2)c2nc(N(CCOC)CCOC)nc(NCc3cccc(F)c3)c2n1` [Compound 142, N4-(3-fluorobenzyl)-N2,N2,N6,N6-tetrakis(2-methoxyethyl)-8-(4-methoxypiperidin-1-yl)pyrimido[5,4-d]pyrimidine-2,4,6-triamine] had a pIC50 of more than 7.00. As for `COCCN(CCOC)c1nc(N2CCC(OC)CC2)c2nc(N(CCOC)CCOC)nc(NCc3cccc(OC(F)(F)F)c3)c2n1` [Compound 143, N2,N2,N6,N6-tetrakis(2-methoxyethyl)-8-(4-methoxypiperidin-1-yl)-N4-(3-(trifluoromethoxy)benzyl)pyrimido[5,4-d]pyrimidine-2,4,6-triamine], the figure is more than 7.00; as for `COCCN(CCOC)c1nc(N2CCC(OC)CC2)c2nc(N(CCOC)CCOC)nc(NCc3cccc(OC(F)F)c3)c2n1` [Compound 144, N4-(3-(difluoromethoxy)benzyl)-N2,N2,N6,N6-tetrakis(2-methoxyethyl)-8-(4-methoxypiperidin-1-yl)pyrimido[5,4-d]pyrimidine-2,4,6-triamine], 6.30 to 7.00.

In turn, `COCCN(CCOC)c1nc(N2CCC(OC)CC2)c2nc(N(CCOC)CCOC)nc(NCc3cccc(C#N)c3)c2n1` [Compound 145, 3-(((2,6-bis(bis(2-methoxyethyl)amino)-8-(4-methoxypiperidin-1-yl)pyrimido[5,4-d]pyrimidin-4-yl)amino)methyl)benzonitrile] showed a negative logarithm of the IC50 (pIC50) of more than 7.00.

`COCCN(CCOC)c1nc(N2CCC(OC)CC2)c2nc(N(CCOC)CCOC)nc(NCc3cccc(-n4cccn4)c3)c2n1` [Compound 146, N4-(3-(1H-pyrazol-1-yl)benzyl)-N2,N2,N6,N6-tetrakis(2-methoxyethyl)-8-(4-methoxypiperidin-1-yl)pyrimido[5,4-d]pyrimidine-2,4,6-triamine] had a pIC50 of 6.30 to 7.00. `COCCN(CCOC)c1nc(N2CCC(OC)CC2)c2nc(N(CCOC)CCOC)nc(NCc3ccnc(N)c3)c2n1` [Compound 147, N4-((2-aminopyridin-4-yl)methyl)-N2,N2,N6,N6-tetrakis(2-methoxyethyl)-8-(4-methoxypiperidin-1-yl)pyrimido[5,4-d]pyrimidine-2,4,6-triamine]: the pIC50 is 6.00 to 6.30.

For `COCCN(CCOC)c1nc(N2CCC(OC)CC2)c2nc(N(CCOC)CCOC)nc(NCc3cccc(S(C)(=O)=O)c3)c2n1` [Compound 148, N2,N2,N6,N6-tetrakis(2-methoxyethyl)-8-(4-methoxypiperidin-1-yl)-N4-(3-(methylsulfonyl)benzyl)pyrimido[5,4-d]pyrimidine-2,4,6-triamine], the negative logarithm of the IC50 (pIC50) was 6.30 to 7.00. As for `COCCN(CCOC)c1nc(N2CCC(OC)CC2)c2nc(N(CCOC)CCOC)nc(NCc3ccc(Cl)c(C#N)c3)c2n1` [Compound 150, 5-(((2,6-bis(bis(2-methoxyethyl)amino)-8-(4-methoxypiperidin-1-yl)pyrimido[5,4-d]pyrimidin-4-yl)amino)methyl)-2-chlorobenzonitrile], the figure is more than 7.00; as for `COCCN(CCOC)c1nc(N2CCC(OC)CC2)c2nc(N(CCOC)CCOC)nc(NCc3cccc(-c4ncco4)c3)c2n1` [Compound 151, N2,N2,N6,N6-tetrakis(2-methoxyethyl)-8-(4-methoxypiperidin-1-yl)-N4-(3-(oxazol-2-yl)benzyl)pyrimido[5,4-d]pyrimidine-2,4,6-triamine], 6.30 to 7.00. `COCCN(CCOC)c1nc(N2CCC(OC)CC2)c2nc(N(CCOC)CCOC)nc(OCc3cc(OC)cc(OC)c3)c2n1` [Compound 152, 4-((3,5-dimethoxybenzyl)oxy)-N2,N2,N6,N6-tetrakis(2-methoxyethyl)-8-(4-methoxypiperidin-1-yl)pyrimido[5,4-d]pyrimidine-2,6-diamine] gave a pIC50 of more than 7.00.

For the molecule `COCCN(CCOC)c1nc(N2CCC(OC)CC2)c2nc(N(CCOC)CCOC)nc(OCc3cccc(OC)c3)c2n1` [Compound 153, 4-((3-methoxybenzyl)oxy)-N2,N2,N6,N6-tetrakis(2-methoxyethyl)-8-(4-methoxypiperidin-1-yl)pyrimido[5,4-d]pyrimidine-2,6-diamine], the pIC50 was more than 7.00.

For the molecule `COCCN(CCOC)c1nc(N2CCC(OC)CC2)c2nc(N(CCOC)CCOC)nc(OCc3ccc(Cl)c(Cl)c3)c2n1` [Compound 154, 4-((3,4-dichlorobenzyl)oxy)-N2,N2,N6,N6-tetrakis(2-methoxyethyl)-8-(4-methoxypiperidin-1-yl)pyrimido[5,4-d]pyrimidine-2,6-diamine], the pIC50 was more than 7.00.

Turning to `COCCN(CCOC)c1nc(N2CCC(OC)CC2)c2nc(N(CCOC)CCOC)nc(OCc3cccc(Cl)c3)c2n1` [Compound 155, 4-((3-chlorobenzyl)oxy)-N2,N2,N6,N6-tetrakis(2-methoxyethyl)-8-(4-methoxypiperidin-1-yl)pyrimido[5,4-d]pyrimidine-2,6-diamine], the pIC50 is more than 7.00. In turn, `COCCN(CCOC)c1nc(N2CCC(OC)CC2)c2nc(N(CCOC)CCOC)nc(OCc3cccc(C#N)c3)c2n1` [Compound 156, 3-(((2,6-bis(bis(2-methoxyethyl)amino)-8-(4-methoxypiperidin-1-yl)pyrimido[5,4-d]pyrimidin-4-yl)oxy)methyl)benzonitrile] had a negative-log IC50 (pIC50) of 6.30 to 7.00. The molecule `COCCN(CCOC)c1nc(N2CCC(OC)CC2)c2nc(N(CCOC)CCOC)nc(OCc3ccc(F)c(OC)c3)c2n1` [Compound 157, 4-((4-fluoro-3-methoxybenzyl)oxy)-N2,N2,N6,N6-tetrakis(2-methoxyethyl)-8-(4-methoxypiperidin-1-yl)pyrimido[5,4-d]pyrimidine-2,6-diamine] gave a pIC50 of more than 7.00. As for `COCCN(CCOC)c1nc(N2CCC(OC)CC2)c2nc(N(CCOC)CCOC)nc(OCc3cncc(C#N)c3)c2n1` [Compound 158, 5-(((2,6-bis(bis(2-methoxyethyl)amino)-8-(4-methoxypiperidin-1-yl)pyrimido[5,4-d]pyrimidin-4-yl)oxy)methyl)nicotinonitrile], the figure is 6.30 to 7.00. As for `COCCN(CCOC)c1nc(N2CCC(OC)CC2)c2nc(N(CCOC)CCOC)nc(OCc3cccc(-c4noc(C)n4)c3)c2n1` [Compound 159, N2,N2,N6,N6-tetrakis(2-methoxyethyl)-4-(4-methoxypiperidin-1-yl)-8-((3-(5-methyl-1,2,4-oxadiazol-3-yl)benzyl)oxy)pyrimido[5,4-d]pyrimidine-2,6-diamine], the figure is 6.30 to 7.00; as for `COCCN(CCOC)c1nc(N2CCC(OC)CC2)c2nc(N(CCOC)CCOC)nc(NCc3cnc(Cl)s3)c2n1` [Compound 160, N4-((2-chlorothiazol-5-yl)methyl)-N2,N2,N6,N6-tetrakis(2-methoxyethyl)-8-(4-methoxypiperidin-1-yl)pyrimido[5,4-d]pyrimidine-2,4,6-triamine], 6.00 to 6.30; as for `COCCN(CCOC)c1nc(N2CCC(OC)CC2)c2nc(N(CCOC)CCOC)nc(NCc3ccc(C)o3)c2n1` [Compound 161, N2,N2,N6,N6-tetrakis(2-methoxyethyl)-8-(4-methoxypiperidin-1-yl)-N4-((5-methylfuran-2-yl)methyl)pyrimido[5,4-d]pyrimidine-2,4,6-triamine], 6.30 to 7.00.

`COCCN(CCOC)c1nc(N2CCC(OC)CC2)c2nc(N(CCOC)CCOC)nc(NCc3cc(C)no3)c2n1` [Compound 162, N2,N2,N6,N6-tetrakis(2-methoxyethyl)-8-(4-methoxypiperidin-1-yl)-N4-((3-methylisoxazol-5-yl)methyl)pyrimido[5,4-d]pyrimidine-2,4,6-triamine] had a negative logarithm of the IC50 (pIC50) of 6.00 to 6.30. The figure for `COCCN(CCOC)c1nc(N2CCC(OC)CC2)c2nc(N(CCOC)CCOC)nc(NCc3cnn(C(C)C)c3)c2n1` [Compound 163, N4-((1-isopropyl-1H-pyrazol-4-yl)methyl)-N2,N2,N6,N6-tetrakis(2-methoxyethyl)-8-(4-methoxypiperidin-1-yl)pyrimido[5,4-d]pyrimidine-2,4,6-triamine] is 6.30 to 7.00; for `COCCN(CCOC)c1nc(N2CCC(OC)CC2)c2nc(N(CCOC)CCOC)nc(OCc3cnn(C(C)C)c3)c2n1` [Compound 164, 4-((1-isopropyl-1H-pyrazol-4-yl)methoxy)-N2,N2,N6,N6-tetrakis(2-methoxyethyl)-8-(4-methoxypiperidin-1-yl)pyrimido[5,4-d]pyrimidine-2,6-diamine] it is 6.00 to 6.30; for `CCCN(CCC)c1nc(N(CCOC)CCOC)nc2c(N3CCC(OC)CC3)nc(N(CCOC)CCOC)nc12` [Compound 165, N2,N2,N6,N6-tetrakis(2-methoxyethyl)-8-(4-methoxypiperidin-1-yl)-N4,N4-dipropylpyrimido[5,4-d]pyrimidine-2,4,6-triamine] it is more than 7.00. The figure for `COCCN(CCOC)c1nc(N(C)C2CCCC2)c2nc(N(CCOC)CCOC)nc(N3CCC(OC)CC3)c2n1` [Compound 166, N4-cyclopentyl-N2,N2,N6,N6-tetrakis(2-methoxyethyl)-8-(4-methoxypiperidin-1-yl)-N4-methylpyrimido[5,4-d]pyrimidine-2,4,6-triamine] is 6.30 to 7.00; for `COCCN(CCOC)c1nc(N2CCC(OC)CC2)c2nc(N(CCOC)CCOC)nc(NC3CCCC3)c2n1` [Compound 167, N4-cyclopentyl-N2,N2,N6,N6-tetrakis(2-methoxyethyl)-8-(4-methoxypiperidin-1-yl)pyrimido[5,4-d]pyrimidine-2,4,6-triamine] it is 6.30 to 7.00.

In general, pIC50 refers to −log10 of the IC50, conventionally taken in molar units.

Values taken from US20230146675A1, “PYRIMIDO[5,4-d]PYRIMIDINE DERIVATIVES AS ENT INHIBITORS FOR THE TREATMENT OF CANCERS, AND COMBINATION THEREOF WITH ADENOSINE RECEPTOR ANTAGONISTS” (ITEOS BELGIUM SA, priority 2020, published 2023).
